# Test results published in US9573887B2, “Naphthalene derivative” (Daito Chemix Corporation, priority 2010, dated 2017).
# Where a name gives a salt, the structure may show the parent alone.
# Target: T1, Mouse VCP (Mus musculus, UniProt Q01853)
# T1 construct: histidine tag (N); made in house; host or cells: Sf-9 insect cells (baculovirus vector pVL1392)
# Experiment: ATPase activity of purified His-tagged VCP, [γ-32P]ATP, liberated phosphate by liquid scintillation
# Type: biochemical
# Settings: compounds of Comparative Examples; determined in the same manner as the Examples
# Method: In one aspect, the effect of VCP regulators for regulating ATPase activity is determined, for example by the following exemplary assay. Mouse VCP cDNA (the amino acid sequence is completely identical among mouse, rat and human) is added with a DNA sequence corresponding to a histidine tag at the amino-terminal, subcloned into a baculovirus vector pVL1392 (BD Bioscience), and expressed in Sf-9 insect cells. The protein is purified with a nickel column. After the purification the concentration of the protein is adjusted to 0.25-0.5 μg/ml and the protein is stored in a solution containing 50 mM TrisCl pH 8.0, 5 mM EDTA, 10% glycerol, and 15 mM DTT at 4° C. 500 ng of the purified VCP is mixed with 100 μM [γ-^32P]ATP (18.5 GBq/mmol) and the test substance in 20 μL of ATPase buffer (20 mM HEPES (pH7.4), 50 mM KCl, 5 mM MgCl2, 15 mM DTT), and incubated at 37° C. for 10 minutes. The enzyme reaction is stopped with addition of 200 μL of an ice-cold solution containing 7% TCA and 1 mM K2HPO4. 50μ of a solution containing 3.75% ammonium molybdate and 0.02M tungstate silicic/3 N H2SO4 is added, followed by 300 μL of n-butylacetic acid, and then the liberated phosphate is extracted into the organic layer. The reaction tube is centrifuged for 5 minutes at 20,000 g to separate the aqueous layer and the organic layer, 200 μL of the organic layer is taken, and the beta ray radiated from the liberated phosphate is quantified with liquid scintillation counter. By measuring the ATPase activity in the presence of the test substance at various concentrations, ATPase inhibitory activity of the test substance is measured.
# Mouse VCP cDNA was added with a DNA sequence corresponding to histidine tag at the amino-terminal, subcloned into a baculovirus vector pVL1392 (BD Bioscience), and expressed in Sf-9 insect cells. The protein was purified with a nickel column (GE Healthcare). The concentration of the protein was adjusted to 0.25-0.5 μg/ml and the protein was stored in a solution containing 50 mM TrisCl pH 8.0, 5 mM EDTA, 10% glycerol, and 15 mM DTT.
# The ATPase activity was determined as follows. 500 ng of the purified VCP was mixed with 100 μM [γ-32P]ATP (18.5 GBq/mmol) and the test substance in 20 μL of ATPase buffer (20 mM HEPES (pH7.4), 50 mM KCl, 5 mM MgCl2, 15 mM DTT), and incubated at 37° C. for 10 minutes.
# The enzyme reaction was stopped with addition of 200 μL of an ice-cold solution containing 7% TCA and 1 mM K2HPO4. 50μ of a solution containing 3.75% ammonium molybdate and 0.02M tungstate silicic/3 NH2SO4 was added, followed by 300 μL of n-butylacetic acid, and then the liberated phosphate was extracted into the organic layer. The reaction tube was centrifuged for 5 minutes at 20,000 g to separate the aqueous layer and the organic layer, 200 μL of the organic layer was taken, and the beta ray radiated from the liberated phosphate was quantified with liquid scintillation counter.
# By measuring the ATPase activity in the presence of the test substance at various concentrations, ATPase inhibitory activity of the test substance was measured. IC50 of the each test substance was calculated by applying the measured values to the equation below using GraphPad Prism (GraphPad Software).
# T1 sequence (Q01853 whole entry): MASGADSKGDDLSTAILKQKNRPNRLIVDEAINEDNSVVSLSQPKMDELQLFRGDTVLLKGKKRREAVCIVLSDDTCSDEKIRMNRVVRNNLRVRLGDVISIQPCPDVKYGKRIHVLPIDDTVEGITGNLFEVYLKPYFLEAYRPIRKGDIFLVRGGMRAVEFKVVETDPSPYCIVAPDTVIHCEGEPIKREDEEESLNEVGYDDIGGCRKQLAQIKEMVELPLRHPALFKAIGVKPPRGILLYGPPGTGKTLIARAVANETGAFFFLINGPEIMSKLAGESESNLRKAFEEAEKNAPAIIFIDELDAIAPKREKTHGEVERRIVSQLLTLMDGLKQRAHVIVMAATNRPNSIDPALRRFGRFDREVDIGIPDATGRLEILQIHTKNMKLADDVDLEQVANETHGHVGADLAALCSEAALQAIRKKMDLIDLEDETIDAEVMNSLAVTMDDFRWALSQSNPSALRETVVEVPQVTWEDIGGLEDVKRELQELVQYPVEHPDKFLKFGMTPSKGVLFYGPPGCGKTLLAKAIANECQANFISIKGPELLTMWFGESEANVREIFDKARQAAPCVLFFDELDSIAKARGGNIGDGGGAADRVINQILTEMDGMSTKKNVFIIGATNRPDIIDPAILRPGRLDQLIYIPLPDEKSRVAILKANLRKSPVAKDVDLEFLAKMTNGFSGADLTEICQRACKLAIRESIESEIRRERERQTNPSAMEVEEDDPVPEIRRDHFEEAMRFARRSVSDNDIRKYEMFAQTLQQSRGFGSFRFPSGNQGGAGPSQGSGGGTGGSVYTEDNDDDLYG
row,Compound,IC50 [nM]
1,"O=[N+]([O-])c1ccc(-c2cccc3c2sc2ccccc23)nc1 [Example 29, sodium salt]",> 100000
2,"Nc1ccc(/N=N/c2ccccc2)c2ccc(S(=O)(=O)O)cc12 [Example 2, sodium salt]",> 10000
3,"Nc1ccc(S(=O)(=O)O)c2ccccc12 [Example 20, sodium salt]",> 10000

# Same assay, conditions: compounds of Examples; ATPase inhibitory activity; 500 ng VCP, 100 μM ATP, 37° C., 10 minutes
row,Compound,IC50 [nM]
1,"COc1cccc(-c2ccc(/N=N/c3cc(S(=O)(=O)O)c4ccccc4c3N)cn2)c1 [Example 32, 4-amino-3-[6-(3-methoxyphenyl)pyridine-3-ylazo]naphthalene-1-sulfonic acid sodium salt]",428
2,"Nc1c(/N=N/c2ccc(-c3ccc(Cl)cc3Cl)nc2)cc(S(=O)(=O)O)c2ccccc12 [Example 19, 4-amino-3-[6-(2,4-dichlorophenyl)pyridine-3-ylazo]naphthalene-1-sulfonic acid sodium salt]",178
3,"Nc1c(/N=N/c2ccc(-c3c(OCc4cccnc4)ccc4c3sc3ccccc34)nc2)cc(S(=O)(=O)O)c2ccccc12 [Example 80, 4-amino-3-{6-″3-(pyridine-3-ylmethoxy)dibenzothiophene-4-yl]pyridine-3-ylazo}naphthalene-1-sulfonic acid sodium salt]",329
4,"Nc1c(/N=N/c2ccc(-c3cccc(C(F)(F)F)c3)nc2)cc(S(=O)(=O)O)c2ccccc12 [Example 37, 4-amino-3-[6-(3-trifluoromethylphenyl)pyridine-3-ylazo]naphthalene-1-sulfonic acid sodium salt]",726
5,"Nc1c(/N=N/c2cccc(F)c2)cc(S(=O)(=O)O)c2ccccc12 [Example 101, 4-amino-3-(3-fluorophenylazo)naphthalene-1-sulfonic acid sodium salt]",1760
6,"Nc1c(/N=N/c2ccccc2OCc2ccncc2)cc(S(=O)(=O)O)c2ccccc12 [Example 141, 4-amino-3-[2-(pyridine-4-ylmethoxy)phenylazo]naphthalene-1-sulfonic acid sodium salt]",747
7,"Nc1c(/N=N/c2ccc(-c3cccc4ccccc34)nc2)cc(S(=O)(=O)O)c2ccccc12 [Example 38, 4-amino-3-(6-naphthalene-1-ylpyridine-3-ylazo)naphthalene-1-sulfonic acid sodium salt]",234
8,"Nc1c(/N=N/c2cnc(Cl)c(-c3ccccc3)c2)cc(S(=O)(=O)O)c2ccccc12 [Example 88, 4-amino-3-(6-chloro-5-phenylpyridine-3-ylazo)naphthalene-1-sulfonic acid sodium salt]",348
9,"Cc1cc(C)cc(-c2ccc(/N=N/c3cc(S(=O)(=O)O)c4ccccc4c3N)cn2)c1 [Example 35, 4-amino-3-[6-(3,5-dimethylphenyl)pyridine-3-ylazo]naphthalene-1-sulfonic acid sodium salt]",632
10,"Nc1c(/N=N/c2ccc(-c3cccc4c3sc3ccccc34)nc2)cc(S(=O)(=O)O)c2ccccc12 [Example 43, 4-amino-3-(6-dibenzothiophene-4-ylpyridine-3-ylazo)naphthalene-1-sulfonic acid potassium salt]",1040
11,"CCCCOc1c(OCC)cc(C=O)cc1-c1ccc(/N=N/c2cc(S(=O)(=O)O)c3ccccc3c2N)cn1 [Example 148, 4-amino-3-[6-(2-butoxy-3-ethoxy-5-formylphenyl)pyridine-3-ylazo]naphthalene-1-sulfonic acid sodium salt]",1560
12,"Nc1c(/N=N/c2ccc(C(=O)Nc3ccccc3)cc2)cc(S(=O)(=O)O)c2ccccc12 [Example 129, 4-amino-3-(4-phenylcarbamoylphenylazo)naphthalene-1-sulfonic acid sodium salt]",1900
13,"CSc1ccc(/N=N/c2cc(S(=O)(=O)O)c3ccccc3c2N)cc1 [Example 134, 4-amino-3-(4-methylsulfanylphenylazo)naphthalene-1-sulfonic acid sodium salt]",327
14,"N#Cc1ccc(-c2ccc(/N=N/c3cc(S(=O)(=O)O)c4ccccc4c3N)cn2)cc1 [Example 45, 4-amino-3-[6-(4-cyanophenyl)pyridine-3-ylazo]naphthalene-1-sulfonic acid sodium salt]",524
15,"CCCOc1cc(F)ccc1-c1ccc(/N=N/c2cc(S(=O)(=O)O)c3ccccc3c2N)cn1 [Example 57, 4-amino-3-[6-(4-fluoro-2-propoxyphenyl)pyridine-3-ylazo]naphthalene-1-sulfonic acid sodium salt]",1390
16,"N#Cc1cc(Cl)ccc1/N=N/c1cc(S(=O)(=O)O)c2ccccc2c1N [Example 118, 4-amino-3-(4-chloro-2-cyanophenylazo)naphthalene-1-sulfonic acid sodium salt]",105
17,"Cc1ccc(-c2ccccc2)c(-c2ccc(/N=N/c3cc(S(=O)(=O)O)c4ccccc4c3N)cn2)c1 [Example 71, 4-amino-3-[6-(4-methylbiphenyl-2-yl)pyridine-3-ylazo]naphthalene-1-sulfonic acid sodium salt]",257
18,"Nc1c(/N=N/c2ccc(-c3ccc(C(=O)c4ccccc4)cc3)nc2)cc(S(=O)(=O)O)c2ccccc12 [Example 47, 4-amino-3-[6-(4-benzoylphenyl)pyridine-3-ylazo]naphthalene-1-sulfonic acid sodium salt]",589
19,"Nc1c(/N=N/c2cccc([N+](=O)[O-])c2)cc(S(=O)(=O)O)c2ccccc12 [Example 96, 4-amino-3-(3-nitrophenylazo)naphthalene-1-sulfonic acid sodium salt]",1630
20,"Nc1c(/N=N/c2ccc(-c3ccccc3OCCCNC(=O)c3ccnc(Cl)c3)nc2)cc(S(=O)(=O)O)c2ccccc12 [Example 77, 4-amino-3-[6-(2-{3-[(2-chloropyridine-4-carbonyl)amino]propoxy}phenyl)pyridine-3-ylazo]naphthalene-1-sulfonic acid sodium salt]",366
21,"Nc1c(/N=N/c2ccc(C(F)(F)F)cc2)cc(S(=O)(=O)O)c2ccccc12 [Example 95, 4-amino-3-(4-trifluoromethylphenylazo)naphthalene-1-sulfonic acid sodium salt]",393
22,"Nc1c(/N=N/c2ccc(-c3ccccc3-c3ccccc3)nc2)cc(S(=O)(=O)O)c2ccccc12 [Example 12, 4-amino-3-(6-biphenyl-2-ylpyridine-3-ylazo)naphthalene-1-sulfonic acid sodium salt]",116
23,"Nc1c(/N=N/c2ccc(OCc3ccccn3)cc2)cc(S(=O)(=O)O)c2ccccc12 [Example 136, 4-amino-3-[4-(pyridine-2-ylmethoxy)phenylazo]naphthalene-1-sulfonic acid sodium salt]",601
24,"Cc1cccc(-c2ccc(/N=N/c3cc(S(=O)(=O)O)c4ccccc4c3N)cn2)c1 [Example 9, 4-amino-3-(6-m-tolylpyridine-3-ylazo)naphthalene-1-sulfonic acid sodium salt]",188
25,"CC(C)(C)OC(=O)NCCCOc1ccccc1-c1ccc(/N=N/c2cc(S(=O)(=O)O)c3ccccc3c2N)cn1 [Example 68, 4-amino-3-{6-[2-(3-tert-butoxycarbonylaminopropoxy)phenyl]pyridine-3-ylazo}naphthalene-1-sulfonic acid sodium salt]",201
26,"Nc1c(/N=N/c2ccc(NC(=O)c3cccs3)cc2)cc(S(=O)(=O)O)c2ccccc12 [Example 97, 4-amino-3-[4-[(2-thienylcarbonyl)amino]phenylazo]-1-naphthalenesulfonic acid sodium salt]",804
27,"Nc1c(/N=N/c2ccc(-c3ccccc3OCCCCCCO)nc2)cc(S(=O)(=O)O)c2ccccc12 [Example 64, 4-amino-3-{6-[2-(6-hydroxyhexyloxy)phenyl]pyridine-3-ylazo}naphthalene-1-sulfonic acid sodium salt]",324
